Among the data in patent publication US20240270762A1, “PENICILLIN-BINDING PROTEIN INHIBITORS” (priority 2021, published 2024) are IC50 and MIC values, retold here.

Assay [1] concerns the target T1, PBP1a from Acinetobacter baumannii (ATCC 19606) (Acinetobacter baumannii, UniProt A0ABX6CK30).
T1 sequence (A0ABX6CK30 1-851): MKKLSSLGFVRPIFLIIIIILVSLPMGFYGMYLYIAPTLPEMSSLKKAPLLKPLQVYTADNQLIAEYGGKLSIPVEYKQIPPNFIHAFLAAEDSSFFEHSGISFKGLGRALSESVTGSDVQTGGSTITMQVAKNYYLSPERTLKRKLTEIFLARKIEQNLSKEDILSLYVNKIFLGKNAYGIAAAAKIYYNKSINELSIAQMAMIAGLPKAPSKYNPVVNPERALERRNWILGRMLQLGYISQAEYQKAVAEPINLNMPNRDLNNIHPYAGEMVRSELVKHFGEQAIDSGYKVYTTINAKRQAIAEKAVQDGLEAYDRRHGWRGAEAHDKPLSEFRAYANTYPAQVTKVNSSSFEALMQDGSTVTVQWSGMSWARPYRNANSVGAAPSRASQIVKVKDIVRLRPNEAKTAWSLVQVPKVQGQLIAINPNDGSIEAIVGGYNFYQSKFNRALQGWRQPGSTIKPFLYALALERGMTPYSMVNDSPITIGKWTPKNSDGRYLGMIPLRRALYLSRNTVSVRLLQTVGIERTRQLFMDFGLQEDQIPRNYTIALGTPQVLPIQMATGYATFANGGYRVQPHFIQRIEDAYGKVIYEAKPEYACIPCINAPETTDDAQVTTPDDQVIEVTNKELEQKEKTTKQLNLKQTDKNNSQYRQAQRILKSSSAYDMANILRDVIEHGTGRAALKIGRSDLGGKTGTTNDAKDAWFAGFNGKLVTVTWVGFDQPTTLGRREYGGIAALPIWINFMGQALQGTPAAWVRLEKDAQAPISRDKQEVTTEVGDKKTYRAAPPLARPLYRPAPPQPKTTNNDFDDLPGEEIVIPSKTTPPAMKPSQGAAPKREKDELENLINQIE
As to the kind of experiment: Bocillin-FL fluorescence polarization competition binding, A. baumannii PBP1a. The conditions noted are these: fluorescence polarization competition binding assay using Bocillin-FL; read-out: A. baumannii PBP1a Potency. The procedure, abridged:
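Purified PBPs pre-incubated with inhibitor (E. coli PBP3 1.5 μM, 30 min; P. aeruginosa PBP3 0.75 μM, A. baumannii PBP1a 1 μM and PBP3 0.2 μM, 15 min), then Bocillin-FL 0.1 μM (0.05 μM for PBP1a) added; FP read up to 60 min. EC50 = concentration halving bound Bocillin-FL.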

For assay [2], the system named is P. aeruginosa CDC-0054. Kind of assay: microbe, parasite or virus in culture. The assay is classed as cell-based. The conditions noted are these: Pseudomonas aeruginosa, CDC0054, read-out: Minimum inhibitory concentration, P. aeruginosa CDC-0054.
For assay [3], the system named is A. baumannii CDC-0045. Kind of assay: microbe, parasite or virus in culture. The assay is classed as cell-based. Particulars: Acinetobacter baumannii, CDC0045, read-out: MIC, A. baumannii CDC-0045.
The test system of assay [4] is A. baumannii ATCC 17978. Kind of assay: microbe, parasite or virus in culture. Format: cell-based. The conditions noted are these: Acinetobacter baumannii, ATCC17978, read-out: MIC, A. baumannii ATCC 17978.
Assay [5] concerns N. gonorrhoeae ATCC 49226. Kind of assay: Liquid broth MIC in Fastidious broth. The conditions noted are these: Neisseria gonorrhoeae, ATCC49226, read-out: Minimum Inhibitory Concentration (MIC), N. gonorrhoeae ATCC 49226.

Values after ≈ are worked out from the molar mass of the structure shown.

As to `O=C(NCCN1CCN(C(=O)NC(C(=O)N[C@H]2Cc3ccc(F)c(C(=O)O)c3OB2O)c2cc(F)c(O)c(O)c2Cl)C(=O)C1=O)Nc1ccc(O)cc1` (stereo partly drawn) [Example 219, (3R)-3-(2-(2-chloro-5-fluoro-3,4-dihydroxyphenyl)-2-(4-(2-(3-(4-hydroxyphenyl)ureido)ethyl)-2,3-dioxopiperazine-1-carboxamido)acetamido)-7-fluoro-2-hydroxy-3,4-dihydro-2H-benzo[e][1,2]oxaborinine-8-carboxylic acid], in assay [1], the IC50 was more than 250 µM. Further, the MIC in assay [2] was 8 to 16 µg/mL (≈ 10.5 to 21 µM); in assay [3] it was 8 to 16 µg/mL (≈ 10.5 to 21 µM); in assay [4], less than 1 µg/mL; in assay [5], 16 to 32 µg/mL (≈ 21 to 42.1 µM).
Consider `O=C(NCCN1CCN(C(=O)NC(C(=O)N[C@H]2Cc3ccc(F)c(C(=O)O)c3OB2O)c2cc(F)c(O)c(O)c2Cl)C(=O)C1=O)Nc1cccc(O)c1` (stereo partly drawn) [Example 220, (3R)-3-(2-(2-chloro-5-fluoro-3,4-dihydroxyphenyl)-2-(4-(2-(3-(3-hydroxyphenyl)ureido)ethyl)-2,3-dioxopiperazine-1-carboxamido)acetamido)-7-fluoro-2-hydroxy-3,4-dihydro-2H-benzo[e][1,2]oxaborinine-8-carboxylic acid], for which, in assay [1], the IC50 is more than 250 µM. Also, the MIC in assay [2] was 8 to 16 µg/mL (≈ 10.5 to 21 µM); in assay [3] it was 2 to 4 µg/mL (≈ 2.63 to 5.26 µM); in assay [4] it was less than 1 µg/mL; in assay [5], 16 to 32 µg/mL (≈ 21 to 42.1 µM).
Taken in the same sequence, the figures for `O=C(NCCN1CCN(C(=O)N[C@@H](C(=O)N[C@H]2Cc3ccc(F)c(C(=O)O)c3OB2O)c2cc(F)c(O)c(O)c2Cl)C(=O)C1=O)Nc1ccncc1` [Example 221, (R)-3-((R)-2-(2-chloro-5-fluoro-3,4-dihydroxyphenyl)-2-(2,3-dioxo-4-(2-(3-(pyridin-4-yl)ureido)ethyl)piperazine-1-carboxamido)acetamido)-7-fluoro-2-hydroxy-3,4-dihydro-2H-benzo[e][1,2]oxaborinine-8-carboxylic acid] were more than 250 µM, 2 to 4 µg/mL (≈ 2.68 to 5.36 µM), less than 1 µg/mL, less than 1 µg/mL and 16 to 32 µg/mL (≈ 21.5 to 42.9 µM).
In the case of `O=C(NCCN1CCN(C(=O)N[C@@H](C(=O)N[C@H]2Cc3ccc(F)c(C(=O)O)c3OB2O)c2cc(F)c(O)c(O)c2Cl)C(=O)C1=O)Nc1cccnc1` [Example 222, (R)-3-((R)-2-(2-chloro-5-fluoro-3,4-dihydroxyphenyl)-2-(2,3-dioxo-4-(2-(3-(pyridin-3-yl)ureido)ethyl)piperazine-1-carboxamido)acetamido)-7-fluoro-2-hydroxy-3,4-dihydro-2H-benzo[e][1,2]oxaborinine-8-carboxylic acid], in assay [1], the IC50 was more than 250 µM. For the same molecule, the MIC in assay [2] is 2 to 4 µg/mL (≈ 2.68 to 5.36 µM); in assay [3] it was less than 1 µg/mL; in assay [4], less than 1 µg/mL; in assay [5], 16 to 32 µg/mL (≈ 21.5 to 42.9 µM).
Regarding `CN(CCN1CCN(C(=O)NC(C(=O)N[C@H]2Cc3ccc(F)c(C(=O)O)c3OB2O)c2cc(F)c(O)c(O)c2Cl)C(=O)C1=O)S(=O)(=O)c1ccc(C(N)=O)cc1` (stereo partly drawn) [Example 223, (3R)-3-(2-(4-(2-((4-carbamoyl-N-methylphenyl)sulfonamido)ethyl)-2,3-dioxopiperazine-1-carboxamido)-2-(2-chloro-5-fluoro-3,4-dihydroxyphenyl)acetamido)-7-fluoro-2-hydroxy-3,4-dihydro-2H-benzo[e][1,2]oxaborinine-8-carboxylic acid], the IC50 in assay [1] is more than 250 µM. Moreover, the MIC in assay [2] was 2 to 4 µg/mL (≈ 2.43 to 4.86 µM); in assay [3], less than 1 µg/mL; in assay [4] it was less than 1 µg/mL; in assay [5], 16 to 32 µg/mL (≈ 19.4 to 38.9 µM).
Take `CN(CCN1CCN(C(=O)NC(C(=O)N[C@H]2Cc3ccc(F)c(C(=O)O)c3OB2O)c2cc(F)c(O)c(O)c2Cl)C(=O)C1=O)S(=O)(=O)c1cccc(C(N)=O)c1` (stereo partly drawn) [Example 224, (3R)-3-(2-(4-(2-((3-carbamoyl-N-methylphenyl)sulfonamido)ethyl)-2,3-dioxopiperazine-1-carboxamido)-2-(2-chloro-5-fluoro-3,4-dihydroxyphenyl)acetamido)-7-fluoro-2-hydroxy-3,4-dihydro-2H-benzo[e][1,2]oxaborinine-8-carboxylic acid]: in assay [1], the IC50 is more than 250 µM. For the same molecule, the MIC in assay [2] is 2 to 4 µg/mL (≈ 2.43 to 4.86 µM); in assay [3], less than 1 µg/mL; in assay [4] it was less than 1 µg/mL; in assay [5], 16 to 32 µg/mL (≈ 19.4 to 38.9 µM).
Turning to `CN(CCN1CCN(C(=O)N[C@@H](C(=O)N[C@H]2Cc3ccc(F)c(C(=O)O)c3OB2O)c2cc(F)c(O)c(O)c2Cl)C(=O)C1=O)Cc1cccc(C(N)=O)c1` [Example 225, (R)-3-((R)-2-(4-(2-((3-carbamoylbenzyl)(methyl)amino)ethyl)-2,3-dioxopiperazine-1-carboxamido)-2-(2-chloro-5-fluoro-3,4-dihydroxyphenyl)acetamido)-7-fluoro-2-hydroxy-3,4-dihydro-2H-benzo[e][1,2]oxaborinine-8-carboxylic acid], the IC50 in assay [1] is more than 250 µM. For the same molecule, the MIC in assay [2] was 2 to 4 µg/mL (≈ 2.59 to 5.18 µM); in assay [3], less than 1 µg/mL; in assay [4], less than 1 µg/mL; in assay [5], 16 to 32 µg/mL (≈ 20.7 to 41.4 µM).
`CN(CCN1CCN(C(=O)N[C@@H](C(=O)N[C@H]2Cc3ccc(F)c(C(=O)O)c3OB2O)c2cc(F)c(O)c(O)c2Cl)C(=O)C1=O)Cc1ccc(C(N)=O)cc1` [Example 226, (R)-3-((R)-2-(4-(2-((4-carbamoylbenzyl)(methyl)amino)ethyl)-2,3-dioxopiperazine-1-carboxamido)-2-(2-chloro-5-fluoro-3,4-dihydroxyphenyl)acetamido)-7-fluoro-2-hydroxy-3,4-dihydro-2H-benzo[e][1,2]oxaborinine-8-carboxylic acid]: in assay [1], the IC50 is more than 250 µM. In addition, the MIC in assay [2] was 8 to 16 µg/mL (≈ 10.4 to 20.7 µM); in assay [3], less than 1 µg/mL; in assay [4] it was less than 1 µg/mL; in assay [5], 16 to 32 µg/mL (≈ 20.7 to 41.4 µM).
In the case of `O=C(NCCCN1CCN(C(=O)NC(C(=O)N[C@H]2Cc3ccc(F)c(C(=O)O)c3OB2O)c2cc(F)c(O)c(O)c2Cl)C(=O)C1=O)Nc1ccc(O)cc1` (stereo partly drawn) [Example 227, (3R)-3-(2-(2-chloro-5-fluoro-3,4-dihydroxyphenyl)-2-(4-(3-(3-(4-hydroxyphenyl)ureido)propyl)-2,3-dioxopiperazine-1-carboxamido)acetamido)-7-fluoro-2-hydroxy-3,4-dihydro-2H-benzo[e][1,2]oxaborinine-8-carboxylic acid], the IC50 in assay [1] was more than 250 µM. Also, the MIC in assay [2] was less than 1 µg/mL; in assay [3], less than 1 µg/mL; in assay [4] it was less than 1 µg/mL; in assay [5] it was 16 to 32 µg/mL (≈ 20.6 to 41.3 µM).
Consider `O=C(NCCCN1CCN(C(=O)NC(C(=O)N[C@H]2Cc3ccc(F)c(C(=O)O)c3OB2O)c2cc(F)c(O)c(O)c2Cl)C(=O)C1=O)Nc1ccncc1` (stereo partly drawn) [Example 228, (3R)-3-(2-(2-chloro-5-fluoro-3,4-dihydroxyphenyl)-2-(2,3-dioxo-4-(3-(3-(pyridin-4-yl)ureido)propyl)piperazine-1-carboxamido)acetamido)-7-fluoro-2-hydroxy-3,4-dihydro-2H-benzo[e][1,2]oxaborinine-8-carboxylic acid], for which the IC50 in assay [1] is more than 250 µM. Also, the MIC in assay [2] is less than 1 µg/mL; in assay [3], less than 1 µg/mL; in assay [4], less than 1 µg/mL; in assay [5], more than 64 µg/mL.
In the case of `O=C(O)c1c(F)ccc2c1OB(O)[C@@H](NC(=O)[C@H](NC(=O)N1CCN(CCNC(=O)[C@@H]3CCCN3)C(=O)C1=O)c1cc(F)c(O)c(O)c1Cl)C2` [Example 229, (R)-3-((R)-2-(2-chloro-5-fluoro-3,4-dihydroxyphenyl)-2-(2,3-dioxo-4-(2-((S)-pyrrolidine-2-carboxamido)ethyl)piperazine-1-carboxamido)acetamido)-7-fluoro-2-hydroxy-3,4-dihydro-2H-benzo[e][1,2]oxaborinine-8-carboxylic acid], the IC50 in assay [1] is more than 250 µM. The MIC is 2 to 4 µg/mL (≈ 2.77 to 5.53 µM) in assay [2], less than 1 µg/mL in assay [3], less than 1 µg/mL in assay [4] and 16 to 32 µg/mL (≈ 22.1 to 44.3 µM) in assay [5].
